Results reported in patent US20190030018A1 (Celgene Corporation, priority 2017, published 2019).

Test system: 563 solid tumor cell lines
Assay: Luminex assay in PRISM, 5 days treatment (AUC)
Type: cell-based
Set-up: AUC: scale not given here
Method: The AUC values provided in Table 80 below were calculated based on the Median Fluorescent Intensity values, the primary read out of the Luminex assay in PRISM. The following parameters were used in this assay: • 8 point dose was used in triplicate • max concentration of 10 μM was used with serial 4-fold dilutions (low of […]) • 563 adherent cell lines in 23 pools. • treatment duration was 5 days.

O=C1CCC(N2Cc3cc(CNC(=O)C(F)(F)c4ccc(Cl)cc4)ccc3C2=O)C(=O)N1 (stereo not shown) [Compound 1, 2-(4-chlorophenyl)-N-((2-(2,6-dioxopiperidin-3-yl)-1-oxoisoindolin-5-yl)methyl)-2,2-difluoroacetamide]
AUC (SIMA_AUTONOMIC_GANGLIA): 0.764 | AUC (SJSA1_BONE): 0.808 | AUC (SKES1_BONE): 0.984 | AUC (SKHEP1_LIVER): 0.817 | AUC (SKLU1_LUNG): 0.644 | AUC (SKMEL2_SKIN): 0.910 | AUC (SKMEL3_SKIN): 0.848 | AUC (SKMEL5_SKIN): 0.831 | AUC (SKMEL24_SKIN): 0.862 | AUC (SKMEL30_SKIN): 0.795 | AUC (SKMES1_LUNG): 0.902 | AUC (SKNAS_AUTONOMIC_GANGLIA): 0.832 | AUC (SKNBE2_AUTONOMIC_GANGLIA): 0.879 | AUC (SKNEP1_BONE): 0.523 | AUC (SKNFI_AUTONOMIC_GANGLIA): 0.852 | AUC (SKOV3_OVARY): 0.850 | AUC (SKPNDW_BONE): 0.861 | AUC (SKUT1_SOFT_TISSUE): 0.845 | AUC (SNB75_CENTRAL_NERVOUS_SYSTEM): 0.768 | AUC (SNGM_ENDOMETRIUM): 0.794 | AUC (SNU46_UPPER_AERODIGESTIVE_TRACT): 0.925 | AUC (SNU61_LARGE_INTESTINE): 0.881 | AUC (SNU81_LARGE_INTESTINE): 0.400 | AUC (SNU182_LIVER): 0.179 | AUC (SNU216_STOMACH): 0.521 | AUC (SNU245_BILIARY_TRACT): 0.853 | AUC (SNU308_BILIARY_TRACT): 0.873 | AUC (SNU398_LIVER): 0.951 | AUC (SNU407_LARGE_INTESTINE): 0.284 | AUC (SNU410_PANCREAS): 0.994 | AUC (SNU423_LIVER): 0.697 | AUC (SNU449_LIVER): 0.971 | AUC (SNU668_STOMACH): 0.423 | AUC (SNU685_ENDOMETRIUM): 0.812 | AUC (SNU719_STOMACH): 0.869 | AUC (SNU738_CENTRAL_NERVOUS_SYSTEM): 0.826 | AUC (SNU840_OVARY): 0.848 | AUC (SNU869_BILIARY_TRACT): 0.782 | AUC (SNU878_LIVER): 0.890 | AUC (SNU886_LIVER): 0.656 | AUC (SNU1041_UPPER_AERODIGESTIVE_TRACT): 0.806 | AUC (SNU1066_UPPER_AERODIGESTIVE_TRACT): 0.860 | AUC (SNU1077_ENDOMETRIUM): 0.759 | AUC (SNU1105_CENTRAL_NERVOUS_SYSTEM): 0.620 | AUC (SNU1196_BILIARY_TRACT): 0.653 | AUC (SNU1214_UPPER_AERODIGESTIVE_TRACT): 0.826 | AUC (SNUC2A_LARGE_INTESTINE): 0.608 | AUC (SNUC4_LARGE_INTESTINE): 0.290 | AUC (SQ1_LUNG): 0.838 | AUC (SU8686_PANCREAS): 0.848 | AUC (SUIT2_PANCREAS): 0.856 | AUC (SW780_URINARY_TRACT): 0.986 | AUC (SW837_LARGE_INTESTINE): 0.995 | AUC (SW948_LARGE_INTESTINE): 0.766 | AUC (SW1088_CENTRAL_NERVOUS_SYSTEM): 0.835 | AUC (SW1116_LARGE_INTESTINE): 0.879 | AUC (SW1271_LUNG): 0.718 | AUC (SW1573_LUNG): 0.894 | AUC (SW1710_URINARY_TRACT): 0.835 | AUC (SW1990_PANCREAS): 0.874 | AUC (T3M10_LUNG): 0.951 | AUC (T24_URINARY_TRACT): 0.906 | AUC (T47D_BREAST): 0.698 | AUC (T98G_CENTRAL_NERVOUS_SYSTEM): 0.830 | AUC (TC32_BONE): 0.681 | AUC (TCCPAN2_PANCREAS): 0.905 | AUC (TE1_OESOPHAGUS): 0.875 | AUC (TE5_OESOPHAGUS): 0.797 | AUC (TE6_OESOPHAGUS): 0.864 | AUC (TE8_OESOPHAGUS): 0.802 | AUC (TE9_OESOPHAGUS): 0.911 | AUC (TE10_OESOPHAGUS): 0.872 | AUC (TE11_OESOPHAGUS): 0.870 | AUC (TE14_OESOPHAGUS): 0.898 | AUC (TEN_ENDOMETRIUM): 0.815 | AUC (TM31_CENTRAL_NERVOUS_SYSTEM): 0.424 | AUC (TOV21G_OVARY): 0.864 | AUC (TOV112D_OVARY): 0.871 | AUC (TT2609C02_THYROID): 0.251 | AUC (TTC709_SOFT_TISSUE): 0.520 | AUC (TT_OESOPHAGUS): 0.859 | AUC (TT_THYROID): 0.179 | AUC (TUHR4TKB_KIDNEY): 0.265 | AUC (U2OS_BONE): 0.862 | AUC (U87MG_CENTRAL_NERVOUS_SYSTEM): 0.724 | AUC (U118MG_CENTRAL_NERVOUS_SYSTEM): 0.871 | AUC (U251MG_CENTRAL_NERVOUS_SYSTEM): 0.806 | AUC (UACC62_SKIN): 0.837 | AUC (UACC257_SKIN): 0.863 | AUC (UBLC1_URINARY_TRACT): 0.875 | AUC (UO31_KIDNEY): 0.710 | AUC (VMRCRCW_KIDNEY): 0.345 | AUC (VMRCRCZ_KIDNEY): 0.969 | AUC (WM88_SKIN): 0.802 | AUC (WM793_SKIN): 0.866 | AUC (WM983B_SKIN): 0.861 | AUC (WM1799_SKIN): 0.101 | AUC (WM2664_SKIN): 0.578 | AUC (X8MGBA_CENTRAL_NERVOUS_SYSTEM): 0.805 | AUC (X42MGBA_CENTRAL_NERVOUS_SYSTEM): 0.845 | AUC (X253JBV_URINARY_TRACT): 0.966 | AUC (X253J_URINARY_TRACT): 0.905 | AUC (X647V_URINARY_TRACT): 0.284 | AUC (X769P_KIDNEY): 0.463 | AUC (X786O_KIDNEY): 0.853 | AUC (X5637_URINARY_TRACT): 0.624 | AUC (X8305C_THYROID): 0.849 | AUC (X8505C_THYROID): 0.558 | AUC (X2313287_STOMACH): 0.254 | AUC (YAPC_PANCREAS): 0.719 | AUC (YD8_UPPER_AERODIGESTIVE_TRACT): 0.501 | AUC (YD10B_UPPER_AERODIGESTIVE_TRACT): 0.903 | AUC (YD38_UPPER_AERODIGESTIVE_TRACT): 0.877 | AUC (YKG1_CENTRAL_NERVOUS_SYSTEM): 0.936 | AUC (ZR751_BREAST): 0.853
